We go through 13 compounds from article PMC6264335, “Synthesis of Quinolin-2-one Alkaloid Derivatives and Their Inhibitory Activities against HIV-1 Reverse Transcriptase” (Molecules, 2011).

Where “and” joins values, the source holds several entries; their conditions need not be identical. Equal values may be shown once.

The first assay concerns the target HIV-1 reverse transcriptase (RT).
Test: not given
The arrangement: method as in PMID 8778237. To be noted: cited from earlier work.
By IC50 is commonly meant the concentration that inhibits the measured activity by half. Take `CC(C)=CCOc1c(CC=C(C)C)c(=O)[nH]c2ccccc12` [Compound 3]: the IC50 was 8 µM.

A further assay concerns the target recombinant HIV-1 RT (Human immunodeficiency virus type 1 group M subtype B, UniProt P04585). Put plainly: HIV-1 RT inhibitory assay (ELISA RT kit, Roche). The following applies: IC50 (effective concentration that inhibits 50% of HIV-1 RT), mean of two independent experiments.
Procedure: HIV-1 reverse transcriptase (RT) activity was measured using a commercially available ELISA RT kit (Roche) according to the instructions of the manufacturer. The compounds were incubated with DIG-labeled reaction mixture at 37 °C for 2 h, then anti-DIG-POD solution was added, followed by substrate ABTS.
`O=c1cc(Sc2ccccc2)c2cc(Cl)ccc2[nH]1` [Compound 4a1, 6-Chloro-4-(phenylthio)quinolin-2(1H)-one]: the IC50 came to 5.6 µM.

`Cc1cc(C)cc(Sc2cc(=O)[nH]c3ccc(Cl)cc23)c1` [Compound 4a2, 6-Chloro-4-(3,5-dimethylphenylthio)quinolin-2(1H)-one]: the IC50 was 0.21 µM.

`Cc1cc(C)cc(Sc2cc(=O)[nH]c3ccccc23)c1` [Compound 4a3, 4-(3,5-dimethylphenylthio)quinolin-2(1H)-one]: the IC50 is 13 µM and 18 µM.

For the compound `O=c1cc([S+]([O-])c2ccccc2)c2cc(Cl)ccc2[nH]1` (stereo not shown) [Compound 4b1, 6-Chloro-4-(phenylsulfinyl)quinolin-2(1H)-one], the IC50 came out at 8.9 µM.

On to `Cc1cc(C)cc([S+]([O-])c2cc(=O)[nH]c3ccc(Cl)cc23)c1` (stereo not shown) [Compound 4b2, 6-Chloro-4-(3,5-dimethylphenylsulfinyl)quinolin-2(1H)-one], for which the IC50 worked out at 2.6 µM.

For the compound `O=c1cc(S(=O)(=O)c2ccccc2)c2cc(Cl)ccc2[nH]1` [Compound 4c1, 6-Chloro-4-(phenylsulfonyl)quinolin-2(1H)-one], the IC50 was 49 µM.

Turning to `Cc1cc(C)cc(S(=O)(=O)c2cc(=O)[nH]c3ccc(Cl)cc23)c1` [Compound 4c2, 6-Chloro-4-(3,5-dimethylphenylsulfonyl)quinolin-2(1H)-one], the IC50 was 10 µM.

As to `O=c1cc(Oc2ccccc2)c2cc(Cl)ccc2[nH]1` [Compound 4d1, 6-Chloro-4-phenoxyquinolin-2(1H)-one], the concentration for half-maximal inhibition (IC50) was 3 µM.

`Cc1cc(C)cc(Oc2cc(=O)[nH]c3ccc(Cl)cc23)c1` [Compound 4d2, 6-Chloro-4-(3,5-dimethylphenoxy)quinolin-2(1H)-one]: the IC50 came to 0.15 µM.

Turning to `O=c1cc(-c2ccccc2)c2cc(Cl)ccc2[nH]1` [Compound 5a, 6-Chloro-4-phenylquinolin-2(1H)-one], the IC50 is above 100 µM.

For `O=c1cc(-c2ccccc2F)c2cc(Cl)ccc2[nH]1` [Compound 5b, 6-Chloro-4-(2-fluorophenyl)quinolin-2(1H)-one], the IC50 was above 100 µM.

As for `O=c1cc(-c2ccccc2Cl)c2cc(Cl)ccc2[nH]1` [Compound 5c, 6-Chloro-4-(2-chlorophenyl)quinolin-2(1H)-one], the IC50 was above 100 µM.
